Consider three compounds from US20140248411A1, “SWEETNESS ENHANCER” (KOREA FOOD RESEARCH INSTITUTE, priority 2011, published 2014).

Common to all, as to type: in vivo
A short description of assay [1]: Sensory evaluation, sweet taste enhancement of LHe with sodium cyclamate (15-point scale).
Protocol: In order to verify specificity of the sweet taste enhancement effect of LHe, a sweetener except sucrose was used as a sweet taste reference sample. […] In the experiment, panels well trained in the basic tastes participated, and the presented samples were maintained at room temperature. After having a taste of the reference sample, the mouth was rinsed with water, and then after having a taste of the sample, intensity of each basic taste was evaluated.
In order to verify specificity of the sweet taste enhancement effect of LHe, a sweetener, except sucrose, was used as a sweet taste reference sample.
The nature of assay [2]: Sensory evaluation on Met-Asn peptide. On the procedure: Sensory evaluation was conducted to validate the role of Met-Asn peptide itself, without sugar binding thereto, on the sweetening effect. […] When a Met-Asn peptide+5% sucrose solution was presented as a sample, the sweet taste intensity thereof was 5.00±0.23, which was not shown to have a significant difference from that of the 5% sucrose solution. […] Accordingly, the sweetness effect of the fraction containing the Met-Asn peptide may be due to the sugar structure binding.

Assay [3] in a line: Sensory evaluation, sweet taste enhancement of LHe with sucrose (15-point scale).
Protocol: In order to more accurately verify the sweet taste enhancement effect of LHe, 2, 5, 10, and 15% sucrose solutions were used as sweet taste reference samples. An LHe solution (300 μg/mL) and an LHe+5% sucrose solution were presented as samples, and sweet taste intensities thereof were measured by a 15-point scale method. Here, the sweet taste intensities of sweet taste reference samples, 2, 5, 10, and 16% sucrose solutions were presented to be 2, 5, 10, and 15 points, respectively, according to the method of Meilgaard et al.
In order to more accurately verify the sweet taste enhancement effect of LHe, 2, 5, 10, and 15% sucrose solutions were used as sweet taste reference samples. A 300 μg/mL LHe solution and a 300 μg/mL LHe+5% sucrose solution were presented as samples, and sweet taste intensities thereof were measured by a 15-point scale method. Here, the sweet taste reference samples, 2, 5, 10, and 16% sucrose solutions were respectively presented to be 2, 5, 10, and 15 points according to the method of Meilgaard et al. (1987).

With `O=S(=O)(O)NC1CCCCC1` [cyclamate, sodium cyclamate], the sweet taste intensity in assay [1] (0.056% cyclamate reference sample) was 2.00±0.00; in assay [1] (0.14% cyclamate reference sample) it was 5.00±0.00.
For the compound `OC[C@H]1O[C@@](CO)(O[C@H]2O[C@H](CO)[C@@H](O)[C@H](O)[C@H]2O)[C@@H](O)[C@@H]1O` [sucrose], the sweet taste intensity in assay [2] (5% sucrose reference sample) is reported as 5.00±0.00; in assay [3] (2% sucrose reference sample), 2.00±0.00; in assay [3] (5% sucrose reference sample), 5.00±0.00.
As to Met-Asn [Met-Asn peptide], the sweet taste intensity in assay [2] (Met-Asn peptide + 5% sucrose solution) is 5.00±0.23; in assay [2] (Met-Asn peptide itself, without sugar binding) it was 0.13±0.04.
